The numbers were not newly measured in publication PMC9358669, “Native metabolomics identifies the rivulariapeptolide family of protease inhibitors” (Nature Communications, 2022), which cites them from elsewhere.

Starred links: 1 amine or outer side, 2 acyl side, 3 side chain; linkers in the order of their positions; H or OH if unused. Positions of bridges follow the written chain, without caps; N, C: chain ends. Non-standard residues stand in square brackets, D forms with d. Residues, ends and D or L forms follow the SMILES beside them. *: point of attachment. Ahp(3S,6R)alloIle = CC[C@@H](C)[C@@H](C(=O)[*:2])N1C(=O)[C@@H](N[*:1])CC[C@H]1O; Propanoyl(2R-OH,3-(4-HOPh)) = O=C([C@H](O)Cc1ccc(O)cc1)*; NMeF = CN[C@@H](Cc1ccccc1)C(=O)O

For this series, the system named is Chymotrypsin. Set-up: method as in earlier work. As to conditions: Supplementary Table 5, Top 50 chymotrypsin inhibitors among Ahp-cyclodepsipeptides; cited from earlier work.
For `CCCCCCCC(=O)N[C@@H](CCC(=O)O)C(=O)N[C@@H]1C(=O)N[C@@H](Cc2ccc(O)cc2)C(=O)N[C@H]2CC[C@@H](O)N(C2=O)[C@@H](Cc2ccccc2)C(=O)N(C)[C@@H](Cc2ccc(O)cc2)C(=O)N[C@@H](C(C)C)C(=O)O[C@@H]1C` [Micropeptin D], the IC50 (as a rule, the concentration at which inhibition is half-maximal) is 1.2 µM.
With `CCCCCC(=O)N[C@@H](CCC(=O)O)C(=O)N[C@@H]1C(=O)N[C@@H](Cc2ccc(O)cc2)C(=O)N[C@H]2CC[C@@H](O)N(C2=O)[C@@H](CC(C)C)C(=O)N(C)[C@@H](Cc2ccc(O)cc2)C(=O)N[C@@H](C(C)C)C(=O)O[C@@H]1C` [Micropeptin E], the concentration for half-maximal inhibition (IC50) was 1 µM.
Turning to `CCCCCCCC(=O)N[C@@H](CCC(=O)O)C(=O)N[C@@H]1C(=O)N[C@@H](Cc2ccc(O)cc2)C(=O)N[C@H]2CC[C@@H](O)N(C2=O)[C@@H](CC(C)C)C(=O)N(C)[C@@H](Cc2ccc(O)cc2)C(=O)N[C@@H](C(C)C)C(=O)O[C@@H]1C` [Micropeptin F], the IC50 was 1.5 µM.
For `CC[C@H](C)[C@@H]1NC(=O)[C@H](Cc2ccccc2)N(C)C(=O)[C@H](C(C)C)N2C(=O)[C@H](CC[C@H]2O)NC(=O)[C@H](CC2C=CC(O)CC2)NC(=O)[C@@H](NC(=O)[C@@H](CCC(N)=O)NC(=O)C(O)Cc2ccc(O)cc2)[C@H](C)OC1=O` (stereo partly shown) [Micropeptin KB1046], the IC50 was 0.22 µM.
As for `CC[C@@H](C)[C@H]1C(=O)N(C)[C@@H](Cc2ccccc2)C(=O)N[C@@H](C(C)C)C(=O)O[C@H](C)[C@H](NC(=O)[C@H](CCC(N)=O)NC(=O)[C@H](O)Cc2ccc(O)cc2)C(=O)N[C@@H](Cc2ccc(O)cc2)C(=O)N[C@H]2CC[C@@H](O)N1C2=O` [Micropeptin KT1042] ({Propanoyl(2R-OH,3-(4-HOPh))}-QTY[Ahp(3S,6R)alloIle][NMeF]V; ester 2-C), the IC50 was 0.26 µM.
As to `CCCCCC(=O)NCC(=O)N[C@H](C(=O)N[C@@H]1C(=O)N[C@@H](CCC(N)=O)C(=O)N[C@H]2CC[C@@H](O)N(C2=O)[C@@H](Cc2ccccc2)C(=O)N(C)[C@@H](Cc2ccc(O)cc2)C(=O)N[C@@H](C(C)C)C(=O)O[C@@H]1C)[C@@H](C)O` [Micropeptin LH1021], the IC50 was 1.1 µM.
On to `CC[C@H](C)[C@@H]1NC(=O)[C@H](Cc2ccccc2)N(C)C(=O)[C@H](Cc2ccccc2)N2C(=O)[C@H](CC[C@H]2O)NC(=O)[C@H](CC(C)C)NC(=O)[C@@H](NC(=O)[C@H](O)CO)[C@@H](C)OC1=O` [Micropeptin MM836], for which the IC50 was 1.4 µM.
Regarding `CC[C@H](C)[C@@H]1NC(=O)[C@H](Cc2ccc(O)cc2)N(C)C(=O)[C@H]([C@@H](C)CC)N2C(=O)C(CCC2O)NC(=O)[C@H](CC(C)C)NC(=O)[C@@H]2C(OC1=O)C(C)CN2C(=O)[C@H](CCC(N)=O)NC(C)=O` (stereo partly shown) [Nostopeptin B], the IC50 is 1.6 µM.
In the case of `CC[C@H](C)[C@@H]1NC(=O)[C@H](Cc2ccc(OC)cc2)N(C)C(=O)[C@H]([C@@H](C)O)N2C(=O)[C@H](CC[C@H]2O)NC(=O)[C@H](CC(C)C)NC(=O)[C@@H](NC(=O)[C@H](CCC(N)=O)NC(=O)[C@H](CCc2ccc(O)cc2)NC(=O)[C@@H](O)CO)[C@@H](C)OC1=O` [Planktopeptin BL1125], the IC50 was 0.8 µM.
As to `CCCC(=O)N[C@@H](CCC(N)=O)C(=O)N[C@@H]1C(=O)N[C@@H](CCCNC(N)=O)C(=O)N[C@H]2CC[C@@H](O)N(C2=O)[C@@H]([C@@H](C)CC)C(=O)N(C)[C@@H](Cc2ccc(OC)c(Br)c2)C(=O)N[C@@H](C(C)C)C(=O)O[C@@H]1C` [Symplocamide A], the IC50 was 0.38 µM.
On to `C/C=C1\NC(=O)[C@@H](NC(=O)[C@@H](NC(=O)[C@H](C)NC(=O)C/C(C)=C/Cl)[C@@H](C)CC)[C@@H](C)OC(=O)[C@H](C(C)C)NC(=O)[C@H](Cc2ccc(O)cc2)N(C)C(=O)[C@H](Cc2ccccc2)N2C(=O)[C@H](CC[C@H]2O)NC1=O` [Tutuilamide A], for which the IC50 was 1 µM.
Take `C/C=C1\NC(=O)[C@@H](NC(=O)[C@@H](NC(=O)[C@H](C)NC(=O)C/C(C)=C/Cl)C(C)C)[C@@H](C)OC(=O)[C@H](C(C)C)NC(=O)[C@H](Cc2ccc(O)cc2)N(C)C(=O)[C@H](Cc2ccccc2)N2C(=O)[C@H](CC[C@H]2O)NC1=O` [Tutuilamide B]: the concentration for half-maximal inhibition (IC50) was 0.577 µM.
As to Crocapeptin B, the IC50 was 0.2 µM.
